By viability, T/C is commonly meant the result in the treated group divided by that in the control group, in per cent. The IC50 is the concentration at which inhibition is half-maximal.

The values below come from PubChem BioAssay AID1919000 (Molecular Pharmacology Branch, DTP, NCI, 2023).

The experiment deals with 653999-131-R-J2-PDC complex spheroids, growth % test/control. As to the kind of experiment: Anticancer human tumor 653999-131-R-J2-PDC patient-derived lung adenocarcinoma cell line growth inhibition [AhR]. The conditions noted are these: for viability, T/C: stronger effect = lower value; for IC50: curve of compound. An excerpt: Multicellular complex tumor spheroid response to aryl hydrocarbon receptor antagonists in combination with a variety of drugs and investigational agents in selected tumor cell lines
The current study was undertaken to assess response to aryl hydrocarbon receptor antagonists in combination with standard-of-care drugs and investigational agents in solid tumor complex spheroid models. Complex spheroids include a stromal component modeled by human endothelial cells (HUVEC) and fibroblasts modeled by human mesenchymal stem cells (MSCs). The concentration ranges selected for each drug and investigational agent were based upon clinically achievable concentrations if the clinical Cmax of the agent was known.
Compounds. The drugs and investigational agents: BAY 2416964 (NSC825713), GNF351 (NSC835774), CH-223191 (NSC835775), CPI-455 (NSC825282), aza-TdCyd (NSC777586), decitabine (NSC127716), belinostat (NSC758774), entinostat (NSC756642), pevonedistat (NSC761192), tazemetostat (NSC777109), talazoparib (NSC765396), olaparib (NSC753686), selinexor (NSC780203), nedisertib (M3814, NSC802822), bortezomib (NSC756655), venetoclax (NSC766270), doxorubicin (NSC123127), elimusertib (BAY189344, NSC800525), ceralasertib (AZD6738, NSC777638), TAK-243 (NSC785004), alisertib (NSC759677), etoposide (NSC141540), topotecan (NSC609699), eribulin (NSC707389), gemcitabine (NSC613327), carboplatin (NSC241240), cisplatin (NSC119875), and SN-38 (NSC673596) were obtained from the National Cancer Institute (NCI) Developmental Therapeutics Program Chemical Repository (32). The FDA-approved anticancer drug set is available from the Developmental Therapeutics Program at https://dtp.cancer.gov/organization/dscb/obtaining/available plates.htm. […] The stock solutions were prepared in dimethyl sulfoxide (DMSO, Sigma-Aldrich, St. Louis, MO, cat. D2650), except for the platinum compounds which were prepared in saline (Quality Biological, Gaithersburg, MD, cat. 114-055-101), at 800-fold the tested concentration and stored at -70 degrees C prior to their use. All drugs and investigational agents were tested over a range starting from a high concentration at or near the clinical Cmax and decreasing in half-log increments. If the clinical Cmax for an agent had not been determined, the highest concentration tested was 10 microM (Table 1).
Cell Culture. All cells were maintained in an incubator at 37 degrees C and 5% CO2 with 95% humidity. The PDC lines were cultured according to standard operating procedures established by the NCI PDMR (https://pdmr.cancer.gov). Briefly, all PDCs were thawed and cultured in Matrigel-coated flasks prepared with a working solution of 1X Ham's F-12 nutrient mix, without supplementation (Invitrogen, Waltham, MA, cat. 11765054), 100 U/mL penicillin-streptomycin (Invitrogen, cat. 15140122), and 2.5% Matrigel (Corning Inc., Corning, NY, cat. 354248) for the first three passages. All PDCs were cultured in complete DMEM/F-12 media containing advanced DMEM/F-12 (Invitrogen, cat. 12634028), 4.9% defined fetal bovine serum, heat inactivated (HyClone Laboratories Inc., Logan, UT, cat. SH30070.03HI), 389 ng/mL hydrocortisone (Sigma-Aldrich, cat. H4001), 9.7 ng/mL human EGF recombinant protein (Invitrogen, cat. PHG0313), 23.4 microg/mL adenine (Sigma-Aldrich, cat. A2786), 97.3 U/mL penicillin-streptomycin (Invitrogen, cat. 15140122), 1.9 mM L-glutamine (Invitrogen, cat. 25030081), and 9.7 microM Y-27632 dihydrochloride (Tocris Bioscience, Bristol, United Kingdom, cat. 1254). The PDCs were cultured in complete DMEM/F12 media without 10 microM Y-27632 dihydrochloride for at least two passages prior to the screen. The established cell lines NCI-H1341 and […] were cultured in DMEM/F-12, HEPES (Invitrogen, cat. 11330032), 5% defined fetal bovine serum (HyClone Laboratories Inc., cat. SH30070.03), ITS premix universal culture supplement [insulin (5 microg/mL), transferrin (5 microg/mL), and selenious acid (5 ng/mL)] […]

Structures are written as SMILES. Where “and” joins values, the source holds several entries; their conditions need not be identical. Identical values can stand only once.
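Also: spheroids exposed to agents for seven days.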

For `Cn1ncnc1C1c2n[nH]c(=O)c3cc(F)cc(c23)NC1c1ccc(F)cc1` (configuration not stated), the IC50 was > 0.1 µM. Further, the viability, T/C (compound 0.000316 µM) is 94.2% and 105% and 97.9%. The viability, T/C (compound 0.001 µM) is 106% and 102% and 107%. For the same molecule, the viability, T/C (compound 0.00316 µM) is 102% and 103% and 116%. Also, the viability, T/C (compound 0.01 µM) is 91.6% and 96% and 101%. Further, the viability, T/C (compound 0.0316 µM) is 94.2% and 95.2% and 105%. Further, the viability, T/C (compound 0.1 µM) was 95.5% and 91.8% and 103%.
In the case of `NS(=O)(=O)OCC1CC(n2ccc3c(NC4CCc5ccccc54)ncnc32)CC1O` (configuration not stated), the IC50 is > 10 µM. The viability, T/C (compound 0.0316 µM) was 101% and 97.7% and 115%. Further, where the note is “compound 0.1 µM”, the viability, T/C was 98.7% and 110% and 114%. Besides, where the note is “compound 0.316 µM”, the viability, T/C is 89.3% and 95.5% and 96%. Moreover, the viability, T/C (compound 1 µM) was 89.8% and 104% and 105%. Further, the viability, T/C (compound 3.16 µM) was 91.9% and 83.5% and 78.4%. Besides, under “compound 10 µM”, the viability, T/C was 53.4% and 61.8% and 55.4%.
Consider `Nc1ccccc1NC(=O)c1ccc(CNC(=O)OCc2cccnc2)cc1`, for which the IC50 was 3.84 µM and 3.93 µM and 4.02 µM. The viability, T/C (compound 0.0316 µM) was 98% and 89.6% and 98.3%. The viability, T/C (compound 0.1 µM) was 102% and 87.1% and 81%. Moreover, the viability, T/C (compound 0.316 µM) was 83% and 80.2% and 77.3%. Moreover, the viability, T/C (compound 1 µM) is 81% and 70.5% and 65.6%. Besides, under “compound 3.16 µM”, the viability, T/C was 57.5% and 63.4% and 69.3%. Further, under “compound 10 µM”, the viability, T/C is 16% and 12.8% and 13.9%.
Consider `Nc1ccn(C2OC(CO)C(O)C2(F)F)c(=O)n1` (configuration not stated), for which the viability, T/C is 69.1% and 74.2% and 70.3% (compound 0.0316 µM); 63.2% and 70.2% and 62.9% (compound 0.1 µM); 50.8% and 61.3% and 51.9% (compound 0.316 µM); 41.5% and 56.2% and 43.5% (compound 1 µM); 37.6% and 50.8% and 41.3% (compound 3.16 µM); 32.7% and 46.7% and 36.1% (compound 10 µM).
Turning to `Nc1ncn(C2CC(O)C(CO)O2)c(=O)n1` (configuration not stated), the IC50 was > 1 µM. Moreover, the viability, T/C (compound 0.00316 µM) was 105% and 95.5% and 110%. Where the note is “compound 0.01 µM”, the viability, T/C was 106% and 102% and 111%. Besides, the viability, T/C (compound 0.0316 µM) is 96.8% and 96.9% and 93.9%. The viability, T/C (compound 0.1 µM) was 89.9% and 86.5% and 91.9%. Besides, the viability, T/C (compound 0.316 µM) is 86.2% and 91.9% and 90.9%. In addition, the viability, T/C (compound 1 µM) was 77.5% and 78.8% and 85.9%.
As for `Nc1ncn(C2CC(O)C(CO)S2)c(=O)n1` (configuration not stated), the IC50 was > 0.3 µM. Moreover, the viability, T/C (compound 0.000949 µM) was 101% and 99.4% and 103%. Besides, under “compound 0.003 µM”, the viability, T/C was 96.3% and 106% and 112%. Moreover, the viability, T/C (compound 0.00949 µM) was 98.4% and 110% and 100%. Also, the viability, T/C (compound 0.03 µM) was 94.8% and 91% and 102%. Under “compound 0.0949 µM”, the viability, T/C was 94.3% and 101% and 104%. Moreover, the viability, T/C (compound 0.3 µM) is 86.8% and 100% and 89%.
Regarding `O=C(C=Cc1cccc(S(=O)(=O)Nc2ccccc2)c1)NO`, the IC50 is 3.45 µM and 4.2 µM and 3.56 µM. Under “compound 0.0316 µM”, the viability, T/C is 91.5% and 94.1% and 91.6%. In addition, under “compound 0.1 µM”, the viability, T/C was 92.4% and 95.9% and 101%. Further, where the note is “compound 0.316 µM”, the viability, T/C was 82.2% and 91.9% and 96.7%. In addition, the viability, T/C (compound 1 µM) was 77% and 86.9% and 80.2%. For the same molecule, the viability, T/C (compound 3.16 µM) was 52.3% and 62.5% and 55.9%. In addition, the viability, T/C (compound 10 µM) is 14.8% and 11.4% and 7.09%.
As for `O=C(C=Cn1cnc(-c2cc(C(F)(F)F)cc(C(F)(F)F)c2)n1)NNc1cnccn1`, the IC50 was 0.264 µM and 0.423 µM and 0.743 µM. For the same molecule, the viability, T/C (compound 0.00949 µM) was 104% and 94.3% and 105%. Besides, the viability, T/C (compound 0.03 µM) was 73.3% and 78.8% and 101%. The viability, T/C (compound 0.0949 µM) was 61.6% and 77.7% and 76.8%. Besides, the viability, T/C (compound 0.3 µM) is 49.5% and 51.9% and 57.9%. Further, the viability, T/C (compound 0.949 µM) is 40.9% and 40.5% and 50.6%. The viability, T/C (compound 3 µM) is 40.6% and 47.6% and 43%.
With `O=C(c1cc(Cc2n[nH]c(=O)c3ccccc23)ccc1F)N1CCN(C(=O)C2CC2)CC1`, the IC50 was > 10 µM. For the setting “compound 0.0316 µM”, the viability, T/C was 107% and 92.7% and 109%. In addition, the viability, T/C (compound 0.1 µM) is 102% and 99.8% and 95.5%. Further, the viability, T/C (compound 0.316 µM) was 96.7% and 98.2% and 106%. Moreover, the viability, T/C (compound 1 µM) was 98.8% and 93.7% and 86.1%. Also, the viability, T/C (compound 3.16 µM) was 97.4% and 95.6% and 95.2%. Besides, the viability, T/C (compound 10 µM) is 86% and 84.6% and 77.5%.
